Entries after “also recorded” stand apart in the source; their conditions may differ.
Tests used:
[1] = 12-hour levodopa plasma pharmacokinetics; type: in vivo, human (patients with PD)
Method: The study design is illustrated in Figure 1.
Pharmacokinetic evaluation occurred over 12 hours with sampling every 30 minutes, except for the last sample following each LD dose in the opicapone plus four LD intake regimen, which was sampled at 1 hour. The main pharmacokinetics parameters assessed included maximum observed plasma concentration (Cmax), time to achieve peak plasma levels (tmax), minimum observed plasma concentration (Cmin), plasma elimination half‐life (t1/2), area under the curve (AUC), and fluctuation index (FI; as an expression of peak‐to‐trough fluctuation, Cmax, and Cmin, relative to average concentration [Cavg]). The pharmacokinetics of the LD metabolite 3‐O‐methyldopa (3‐OMD) was also evaluated.
Descriptive statistics were used to summarize the pharmacokinetics parameters for LD and 3‐OMD for each of the three regimens. […] No formal comparison was performed between opicapone regimens.

[2] = opicapone pivotal trials; average; cited from earlier work
[3] = opicapone 50 mg added to LD/CD 400/100 mg (both regimens) vs LD/CD 500/125 mg without opicapone

## Cc1c(Cl)c(C)[n+]([O-])c(Cl)c1-c1noc(-c2cc(O)c(O)c([N+](=O)[O-])c2)n1 [opicapone]
[1]; [3]
  effect on LD minimal (trough) concentrations (Cmin): at least doubled; also recorded: twofold increase
  effect on LD plasma half-life (t1/2): at least doubled
[1]; opicapone 50 mg added to either LD/CD 400/100 mg regimen
  impact on time to reach (tmax) maximum LD concentrations: no impact
[1]; opicapone 50 mg added to either LD/CD 400/100 mg regimen vs five-intake LD/CD 500/125 mg without opicapone
  impact on maximal LD concentrations (Cmax): no significant impact
[2]
  reduction of off time relative to placebo: 1 h

Reference: paper PMC9804871, “Effect of Opicapone on Levodopa Pharmacokinetics in Patients with Fluctuating Parkinson's Disease” (Movement Disorders, 2022)
